According to patent US7294651B2 (priority 2001, dated 2007):
“And” between values parts separate entries of the source, which are not always exact repeats. Identical values can stand only once.

How the values were obtained:
TSST-1 = format: cell-based, S. aureus; set-up: ng TSST-1 per CFU: scale not given here
S. aureus (MN8) = format: cell-based

Molecule: CC(=O)/C=C/C1=C(C)CCCC1(C)C [Beta-ionone]
- Reduction of Toxin % (TSST-1): 100%
- ng TSST-1 per OD Unit (TSST-1): none
- CFU/mL (S. aureus (MN8)): 1.8E+08 CFU/mL
- Optical Density (S. aureus (MN8)): 0.688

Molecule: CC1CCC(C(C)C)C(O)C1 (centres unmarked) [Menthol, menthol]
- effect on the growth of S. aureus cells (S. aureus (MN8)): minimal, if any, effect

Molecule: myreth-3-myristate [Cetiol]
- ng TSST-1 per CFU (TSST-1): 371 and 196 and 200
- ng TSST-1 per mL (TSST-1): 1556 ng TSST-1 per mL and 1147 ng TSST-1 per mL and 989 ng TSST-1 per mL
- CFU/mL × 10^8 (S. aureus (MN8)): 4.2 CFU/mL × 10^8 and 5.9 CFU/mL × 10^8 and 5.0 CFU/mL × 10^8
